Tested on: Escherichia coli 0505101 (ESBL)
Experiment: Growth and enzymatic activity on ChromID CPS-based selective media
Format: cell-based
Design: Enz act.: key to the marks not given beside the values
Conditions: 18 h at 37° C.; cefpodoxime 4 mg/l (T), cefepime 0.25 mg/l (A), cefamandole 3 mg/l (B), cefuroxime 3 mg/l (C), each with 300 mg/l cloxacillin
From the text: (§1) Choice of strains: The inventors selected strains which make it possible to evaluate the activity of antibiotics with respect to Gram-negative species: enterobacteria and nonfermenting bacilli. In particular, ESBL-producing strains, high-level cephalosporinase-producing strains (HL Case) and strains without a particular resistance profile, termed wild-type strains, were used.
(§2) Preparation of media: The media tested were media composed of the peptone base of the ChromID CPS medium (bioMérieux ref 43541) to which were added, after autoclaving, in molten media, 300 mg/l cloxacillin and, for medium T: 4 mg/l cefpodoxime, for medium A: 0.25 mg/L of cefepime, for medium B: 3 mg/l of cefamandole and for medium C: 3 mg/l of cefuroxime.
(§3) Inoculation of media: The media are inoculated by carrying out a 3-quadrant streaking method using bacterial suspensions at 0.5 McF. The media are then incubated for 24 hours at 37° C.
(§4) Reading of media: The media are observed visually after 18 h and 24 hours of incubation, the growth density and also the colorations and coloration strengths are evaluated according to the scale below: • − or 0: absence of growth or of expression of enzymatic acitivity (i.e. no coloration) • +: weak growth, or enzymatic activity • ++: very strong growth density or strong enzymatic acitivity (very strong coloration)

Compound	Enz act.	Growth
Cn1nnnc1SCC1=C(C(=O)O)N2C(=O)[C@@H](NC(=O)[C@H](O)c3ccccc3)[C@H]2SC1 [Cefamandole, cefamandole]	++	++

Same assay, conditions: 24 h at 37° C.; cefpodoxime 4 mg/l (T), cefepime 0.25 mg/l (A), cefamandole 3 mg/l (B), cefuroxime 3 mg/l (C), each with 300 mg/l cloxacillin

Compound	Enz act.	Growth
Cn1nnnc1SCC1=C(C(=O)O)N2C(=O)[C@@H](NC(=O)[C@H](O)c3ccccc3)[C@H]2SC1 [Cefamandole, cefamandole]	++	++

Tested on: Klebsiella oxytoca 0502094 (ESBL)
Experiment: as above
Format: cell-based
Design: key to the marks not given beside the values
Conditions: 18 h at 37° C.; cefpodoxime 4 mg/l (T), cefepime 0.25 mg/l (A), cefamandole 3 mg/l (B), cefuroxime 3 mg/l (C), each with 300 mg/l cloxacillin
From the text: as §1, §2, §3, §4

Compound	Enz act.	Growth
Cn1nnnc1SCC1=C(C(=O)O)N2C(=O)[C@@H](NC(=O)[C@H](O)c3ccccc3)[C@H]2SC1 [Cefamandole, cefamandole]	++	++

Same assay, conditions: 24 h at 37° C.; cefpodoxime 4 mg/l (T), cefepime 0.25 mg/l (A), cefamandole 3 mg/l (B), cefuroxime 3 mg/l (C), each with 300 mg/l cloxacillin

Compound	Enz act.	Growth
Cn1nnnc1SCC1=C(C(=O)O)N2C(=O)[C@@H](NC(=O)[C@H](O)c3ccccc3)[C@H]2SC1 [Cefamandole, cefamandole]	++	++

Tested on: Enterobacter spp 9306069 (HL case)
Experiment: as above
Format: cell-based
Design: key to the marks not given beside the values
Conditions: 18 h at 37° C.; cefpodoxime 4 mg/l (T), cefepime 0.25 mg/l (A), cefamandole 3 mg/l (B), cefuroxime 3 mg/l (C), each with 300 mg/l cloxacillin
From the text: as §1, §2, §3, §4

Compound	Enz act.	Growth
Cn1nnnc1SCC1=C(C(=O)O)N2C(=O)[C@@H](NC(=O)[C@H](O)c3ccccc3)[C@H]2SC1 [Cefamandole, cefamandole]	++	++

Same assay, conditions: 24 h at 37° C.; cefpodoxime 4 mg/l (T), cefepime 0.25 mg/l (A), cefamandole 3 mg/l (B), cefuroxime 3 mg/l (C), each with 300 mg/l cloxacillin

Compound	Enz act.	Growth
Cn1nnnc1SCC1=C(C(=O)O)N2C(=O)[C@@H](NC(=O)[C@H](O)c3ccccc3)[C@H]2SC1 [Cefamandole, cefamandole]	++	++

Tested on: Enterobacter aerogenes 0502112 (ESBL)
Experiment: as above
Format: cell-based
Design: key to the marks not given beside the values
Conditions: 18 h at 37° C.; cefpodoxime 4 mg/l (T), cefepime 0.25 mg/l (A), cefamandole 3 mg/l (B), cefuroxime 3 mg/l (C), each with 300 mg/l cloxacillin
From the text: as §1, §2, §3, §4

Compound	Enz act.	Growth
Cn1nnnc1SCC1=C(C(=O)O)N2C(=O)[C@@H](NC(=O)[C@H](O)c3ccccc3)[C@H]2SC1 [Cefamandole, cefamandole]	++	++

Same assay, conditions: 24 h at 37° C.; cefpodoxime 4 mg/l (T), cefepime 0.25 mg/l (A), cefamandole 3 mg/l (B), cefuroxime 3 mg/l (C), each with 300 mg/l cloxacillin

Compound	Enz act.	Growth
Cn1nnnc1SCC1=C(C(=O)O)N2C(=O)[C@@H](NC(=O)[C@H](O)c3ccccc3)[C@H]2SC1 [Cefamandole, cefamandole]	++	++

Tested on: Escherichia coli 0411146 (ESBL)
Experiment: as above
Format: cell-based
Design: key to the marks not given beside the values
Conditions: 18 h at 37° C.; cefpodoxime 4 mg/l (T), cefepime 0.25 mg/l (A), cefamandole 3 mg/l (B), cefuroxime 3 mg/l (C), each with 300 mg/l cloxacillin
From the text: as §1, §2, §3, §4

Compound	Enz act.	Growth
Cn1nnnc1SCC1=C(C(=O)O)N2C(=O)[C@@H](NC(=O)[C@H](O)c3ccccc3)[C@H]2SC1 [Cefamandole, cefamandole]	++	++

Same assay, conditions: 24 h at 37° C.; cefpodoxime 4 mg/l (T), cefepime 0.25 mg/l (A), cefamandole 3 mg/l (B), cefuroxime 3 mg/l (C), each with 300 mg/l cloxacillin

Compound	Enz act.	Growth
Cn1nnnc1SCC1=C(C(=O)O)N2C(=O)[C@@H](NC(=O)[C@H](O)c3ccccc3)[C@H]2SC1 [Cefamandole, cefamandole]	++	++

Tested on: Proteus mirabilis 0105105 (HL case)
Experiment: as above
Format: cell-based
Conditions: 18 h at 37° C.; cefpodoxime 4 mg/l (T), cefepime 0.25 mg/l (A), cefamandole 3 mg/l (B), cefuroxime 3 mg/l (C), each with 300 mg/l cloxacillin
From the text: as §1, §2, §3, §4

Compound	Enz act.	Growth
Cn1nnnc1SCC1=C(C(=O)O)N2C(=O)[C@@H](NC(=O)[C@H](O)c3ccccc3)[C@H]2SC1 [Cefamandole, cefamandole]	−	−

Same assay, conditions: 24 h at 37° C.; cefpodoxime 4 mg/l (T), cefepime 0.25 mg/l (A), cefamandole 3 mg/l (B), cefuroxime 3 mg/l (C), each with 300 mg/l cloxacillin

Compound	Enz act.	Growth
Cn1nnnc1SCC1=C(C(=O)O)N2C(=O)[C@@H](NC(=O)[C@H](O)c3ccccc3)[C@H]2SC1 [Cefamandole, cefamandole]	−	−

Tested on: Proteus mirabilis 0105109 (HL case)
Experiment: as above
Format: cell-based
Conditions: 18 h at 37° C.; cefpodoxime 4 mg/l (T), cefepime 0.25 mg/l (A), cefamandole 3 mg/l (B), cefuroxime 3 mg/l (C), each with 300 mg/l cloxacillin
From the text: as §1, §2, §3, §4

Compound	Enz act.	Growth
Cn1nnnc1SCC1=C(C(=O)O)N2C(=O)[C@@H](NC(=O)[C@H](O)c3ccccc3)[C@H]2SC1 [Cefamandole, cefamandole]	−	−

Same assay, conditions: 24 h at 37° C.; cefpodoxime 4 mg/l (T), cefepime 0.25 mg/l (A), cefamandole 3 mg/l (B), cefuroxime 3 mg/l (C), each with 300 mg/l cloxacillin

Compound	Enz act.	Growth
Cn1nnnc1SCC1=C(C(=O)O)N2C(=O)[C@@H](NC(=O)[C@H](O)c3ccccc3)[C@H]2SC1 [Cefamandole, cefamandole]	−	−

Tested on: Proteus mirabilis 9709068 (ESBL)
Experiment: as above
Format: cell-based
Conditions: 18 h at 37° C.; cefpodoxime 4 mg/l (T), cefepime 0.25 mg/l (A), cefamandole 3 mg/l (B), cefuroxime 3 mg/l (C), each with 300 mg/l cloxacillin
From the text: as §1, §2, §3, §4

Compound	Enz act.	Growth
Cn1nnnc1SCC1=C(C(=O)O)N2C(=O)[C@@H](NC(=O)[C@H](O)c3ccccc3)[C@H]2SC1 [Cefamandole, cefamandole]	−	+

Same assay, conditions: 24 h at 37° C.; cefpodoxime 4 mg/l (T), cefepime 0.25 mg/l (A), cefamandole 3 mg/l (B), cefuroxime 3 mg/l (C), each with 300 mg/l cloxacillin

Compound	Enz act.	Growth
Cn1nnnc1SCC1=C(C(=O)O)N2C(=O)[C@@H](NC(=O)[C@H](O)c3ccccc3)[C@H]2SC1 [Cefamandole, cefamandole]	+	+

Tested on: Enterobacter spp 0503037 (Wild-type)
Experiment: as above
Format: cell-based
Conditions: 18 h at 37° C.; cefpodoxime 4 mg/l (T), cefepime 0.25 mg/l (A), cefamandole 3 mg/l (B), cefuroxime 3 mg/l (C), each with 300 mg/l cloxacillin
From the text: as §1, §2, §3, §4

Compound	Enz act.	Growth
Cn1nnnc1SCC1=C(C(=O)O)N2C(=O)[C@@H](NC(=O)[C@H](O)c3ccccc3)[C@H]2SC1 [Cefamandole, cefamandole]	++	++

Same assay, conditions: 24 h at 37° C.; cefpodoxime 4 mg/l (T), cefepime 0.25 mg/l (A), cefamandole 3 mg/l (B), cefuroxime 3 mg/l (C), each with 300 mg/l cloxacillin

Compound	Enz act.	Growth
Cn1nnnc1SCC1=C(C(=O)O)N2C(=O)[C@@H](NC(=O)[C@H](O)c3ccccc3)[C@H]2SC1 [Cefamandole, cefamandole]	++	++

Tested on: Morganella morganii 9904104 (HL case)
Experiment: as above
Format: cell-based
Conditions: 18 h at 37° C.; cefpodoxime 4 mg/l (T), cefepime 0.25 mg/l (A), cefamandole 3 mg/l (B), cefuroxime 3 mg/l (C), each with 300 mg/l cloxacillin
From the text: as §1, §2, §3, §4

Compound	Enz act.	Growth
Cn1nnnc1SCC1=C(C(=O)O)N2C(=O)[C@@H](NC(=O)[C@H](O)c3ccccc3)[C@H]2SC1 [Cefamandole, cefamandole]	−	−

Same assay, conditions: 24 h at 37° C.; cefpodoxime 4 mg/l (T), cefepime 0.25 mg/l (A), cefamandole 3 mg/l (B), cefuroxime 3 mg/l (C), each with 300 mg/l cloxacillin

Compound	Enz act.	Growth
Cn1nnnc1SCC1=C(C(=O)O)N2C(=O)[C@@H](NC(=O)[C@H](O)c3ccccc3)[C@H]2SC1 [Cefamandole, cefamandole]	−	−

Tested on: Klebsiella oxytoca 0105100 (HL case)
Experiment: as above
Format: cell-based
Conditions: 18 h at 37° C.; cefpodoxime 4 mg/l (T), cefepime 0.25 mg/l (A), cefamandole 3 mg/l (B), cefuroxime 3 mg/l (C), each with 300 mg/l cloxacillin
From the text: as §1, §2, §3, §4

Compound	Enz act.	Growth
Cn1nnnc1SCC1=C(C(=O)O)N2C(=O)[C@@H](NC(=O)[C@H](O)c3ccccc3)[C@H]2SC1 [Cefamandole, cefamandole]	+	+

Same assay, conditions: 24 h at 37° C.; cefpodoxime 4 mg/l (T), cefepime 0.25 mg/l (A), cefamandole 3 mg/l (B), cefuroxime 3 mg/l (C), each with 300 mg/l cloxacillin

Compound	Enz act.	Growth
Cn1nnnc1SCC1=C(C(=O)O)N2C(=O)[C@@H](NC(=O)[C@H](O)c3ccccc3)[C@H]2SC1 [Cefamandole, cefamandole]	++	+

Tested on: Serratia fonticola 8001047 (Wild-type)
Experiment: as above
Format: cell-based
Conditions: 18 h at 37° C.; cefpodoxime 4 mg/l (T), cefepime 0.25 mg/l (A), cefamandole 3 mg/l (B), cefuroxime 3 mg/l (C), each with 300 mg/l cloxacillin
From the text: as §1, §2, §3, §4

Compound	Enz act.	Growth
Cn1nnnc1SCC1=C(C(=O)O)N2C(=O)[C@@H](NC(=O)[C@H](O)c3ccccc3)[C@H]2SC1 [Cefamandole, cefamandole]	+	+

Same assay, conditions: 24 h at 37° C.; cefpodoxime 4 mg/l (T), cefepime 0.25 mg/l (A), cefamandole 3 mg/l (B), cefuroxime 3 mg/l (C), each with 300 mg/l cloxacillin

Compound	Enz act.	Growth
Cn1nnnc1SCC1=C(C(=O)O)N2C(=O)[C@@H](NC(=O)[C@H](O)c3ccccc3)[C@H]2SC1 [Cefamandole, cefamandole]	++	+

— US20120122148A1, “Media For The Specific Detection Of Gram-Negative Bacteria Resistant To Beta-Lactam Antibiotics” (bioMerieux, SA, priority 2009, published 2012)
